This is an account of results in patent US4176116A, “Dipeptide derivatives” (Hoffmann-La Roche Inc., priority 1976, dated 1979).

Peptide text beside a SMILES is read from it. * marks the point of attachment. Tos = Cc1ccc(S(=O)(=O)*)cc1; Isobutyryl = CC(C)C(=O)*; Pentanoyl = CCCCC(=O)*; PhAc = O=C(Cc1ccccc1)*; Piv = CC(C)(C)C(=O)*; Bz = O=C(c1ccccc1)*

porcine pancreatic elastase, sequence (P00772 27-266): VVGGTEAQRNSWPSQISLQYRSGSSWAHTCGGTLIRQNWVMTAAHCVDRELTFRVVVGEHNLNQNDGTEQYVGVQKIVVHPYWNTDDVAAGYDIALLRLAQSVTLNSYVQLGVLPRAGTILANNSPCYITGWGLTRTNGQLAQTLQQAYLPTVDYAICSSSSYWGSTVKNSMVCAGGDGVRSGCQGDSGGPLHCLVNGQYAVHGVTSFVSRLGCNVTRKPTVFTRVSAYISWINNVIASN

The target in one experiment is porcine pancreatic elastase (Sus scrofa, UniProt P00772). Briefly: in vitro elastase inhibition, test method of Visser and Blout. Type of experiment: biochemical. Particulars: porcine pancreatic elastase as the enzyme; read-out: Ki (inhibitor constant). The source says:
Acta 268 (1972) 257, using porcine pancreatic elastase as the enzyme. The results obtained with representative dipeptide derivatives in this test are given in Table I hereinafter, the Ki being the inhibitor constant in millimoles per liter: […]
In general, Ki refers to the equilibrium dissociation constant of an inhibitor or competing ligand from its target. Take `CCNC(=O)[C@@H]1CCCN1C(=O)[C@H](C)NC(=O)Cc1ccccc1` [N-Phenacetyl-L-alanyl-L-proline ethylamide] (PhAc-Ala-Pro-NHEt): the inhibition constant (Ki) was 86 µM.
On the same count and under the same terms, in the case of `CCNC(=O)[C@@H]1CCCN1C(=O)[C@H](C)NC(=O)c1ccccc1` [N-Benzoyl-L-alanyl-L-proline ethylamide] (Bz-Ala-Pro-NHEt) it was 26 µM; in that of `CCNC(=O)[C@@H]1CCCN1C(=O)[C@H](C)NC(=O)C(C)(C)C` [N-Pivaloyl-L-alanyl-L-proline ethylamide] (Piv-Ala-Pro-NHEt), 90 µM.
The same measure, in the same setting: the figure for `CCNC(=O)[C@@H]1CCCN1C(=O)[C@H](C)NC(=O)C(C)C` [N-Isobutanoyl-L-alanyl-L-proline ethylamide] (Isobutyryl-Ala-Pro-NHEt) is 60 µM.
Same read-out and setting: the figure for `CCNC(=O)[C@@H]1CCCN1C(=O)[C@H](C)NC(=O)C1CCCCC1` [N-Cyclohexylcarbonyl-L-alanyl-L-proline ethylamide] is 10 µM; for `CCCCC(=O)N[C@@H](C)C(=O)N1CCC[C@H]1C(=O)NCC` [N-(n-Valeryl)-L-alanyl-L-proline ethylamide] (Pentanoyl-Ala-Pro-NHEt) it is 80 µM; for `CCNC(=O)[C@H](C)NC(=O)[C@H](C)NC(=O)c1ccccc1` [N-Benzoyl-L-alanyl-L-alanine ethylamide] (Bz-Ala-Ala-NHEt) it is 120 µM.

The target of the next experiment is T1, human granulocyte elastase (Homo sapiens, UniProt P08246).
T1 sequence (P08246 30-267): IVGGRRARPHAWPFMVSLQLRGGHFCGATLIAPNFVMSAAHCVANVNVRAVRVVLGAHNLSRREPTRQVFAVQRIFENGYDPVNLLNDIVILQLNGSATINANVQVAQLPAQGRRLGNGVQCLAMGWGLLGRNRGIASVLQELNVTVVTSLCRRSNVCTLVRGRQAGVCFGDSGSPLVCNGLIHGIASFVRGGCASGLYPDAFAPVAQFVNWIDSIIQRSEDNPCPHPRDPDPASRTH
Described as above. Particulars: human granulocyte elastase as the enzyme; read-out: I50 (concentration which gives 50% inhibition of the human granulocyte elastase). Type of experiment: biochemical. The source says:
Acta 268 (1972) 257, using porcine pancreatic elastase as the enzyme. The results obtained with representative dipeptide derivatives in this test are given in Table I hereinafter, the Ki being the inhibitor constant in millimoles per liter:
The result obtained with a representative dipeptide derivative in this test is given in Table II hereinafter, the I50 being the concentration in millimoles per liter which gives 50% inhibition of the human granulocyte elastase: […]
As to `CCNC(=O)[C@@H]1CCCN1C(=O)[C@H](C)NS(=O)(=O)c1ccc(C)cc1` [N-(p-Toluenesulphonyl)-L-alanyl-L-proline ethylamide] (Tos-Ala-Pro-NHEt), the IC50 came out at 900 µM.
